Results on 22 compounds are retold here after US20250145633A1, “SUBSTITUTED FURANOPYRIMIDINE COMPOUNDS AS PDE1 INHIBITORS” (Dart NeuroScience, LLC, priority 2017, published 2025).

Counter-ions that a name gives are not always drawn.

In one test the target is human PDE1B enzyme (Homo sapiens (Human), UniProt Q01064). The experiment in a line: IMAP TR-FRET PDE1B enzymatic assay. It counts as biochemical. The following applies: negative log of half-maximal molar inhibitory concentration; 200 nM FAM-cAMP; values given as bins. The procedure:
PDE1B inhibition was determined by an IMAP TR-FRET assay. The IMAP TR-FRET PDE assay was optimized for concentration of enzyme, Calmodulin, cAMP or cGMP substrate, DMSO tolerance, and incubation time.
Into each well of a solid white 1536 well plate (Corning) was dispensed 250 pg full-length recombinant NH-terminal GST tagged human PDE1B enzyme (BPS Bioscience Cat #60011, San Diego, CA) in 2.5 μL IMAP BSA reaction buffer (Molecular Devices, Sunnyvale, CA) containing 10 U/ml Calmodulin and 2.5 mM CaCl2) (Sigma Aldrich.) After a brief centrifugation, 30 nL of compound was added by transfer from 1 mM stock in DMSO using a Kalypsys 1536 Pintool. Plates were incubated for 5 minutes at room temperature before dispensing 1.5 μL of 533 nM 5-carboxy fluorescein (FAM)-labeled cAMP (Molecular Devices, Sunnyvale, CA) for a final concentration of 200 nM. After a brief centrifugation, the plates were incubated for 30 minutes at room temperature. The assay was terminated by adding 5 μL IMAP binding reagent/Tb complex (Molecular Devices, Sunnyvale, CA) to each well.
Plates were incubated for 1 hour at room temperature and were read on a Viewlux multimode plate reader (Perkin Elmer). The instrument was set to excite using the DUG11 filter and measure using 490/10 nm and 520/10 nm filters. Ratios of acceptor and donor were then calculated.
For IC50 calculations, the values of % efficacy versus a series of compound concentrations were then plotted using non-linear regression analysis of sigmoidal dose-response curves generated with the equation Y=[B+(T−B)]/[1+10((Log EC50−X)×Hill Slope)], where Y=percent activity, B=minimum percent efficacy, T=maximum percent efficacy, X=logarithm of compound and Hill Slope=slope factor or Hill coefficient. The IC50 value was determined by the concentration causing a half-maximal percent efficacy.
For orientation: TR-FRET usually uses a lanthanide donor and a delayed reading to cut background.
`Cc1oc2ncnc(NC3(C)CC3)c2c1C(=O)N1CCc2c(OCCF)ccnc2C1` [Example 20, 5-[4-(2-Fluoroethoxy)-5,6,7,8-tetrahydro-1,7-naphthyridine-7-carbonyl]-6-methyl-N-(1-methylcyclopropyl)furo[2,3-d]pyrimidin-4-amine trifluoroacetate]: the “PDE1b (pIC50)” value was more than 8.
Consider `Cc1oc2ncnc(NC3(C)CC3)c2c1C(=O)N1CCC(c2ccnc(F)c2)C1` (stereo not shown) [Example 21, 5-[3-(2-Fluoropyridin-4-yl)pyrrolidine-1-carbonyl]-6-methyl-N-(1-methylcyclopropyl)furo[2,3-d]pyrimidin-4-amine], for which the “PDE1b (pIC50)” value is reported as more than 8.
As to `CCOc1ncnc2c1CCN(C(=O)c1c(C)oc3ncnc(NC4(C)CC4)c13)C2` [Example 25, 5-{4-Ethoxy-5H,6H,7H,8H-pyrido[3,4-d]pyrimidine-7-carbonyl}-6-methyl-N-(1-methylcyclopropyl)furo[2,3-d]pyrimidin-4-amine], the “PDE1b (pIC50)” value was more than 8.
In the case of `Cc1oc2ncnc(NC3(C)CC3)c2c1C(=O)N1CCC(c2nccc(NCCF)n2)CC1` [Example 26, (4-(4-((2-Fluoroethyl)amino)pyrimidin-2-yl)piperidin-1-yl)(6-methyl-4-((1-methylcyclopropyl)amino)furo[2,3-d]pyrimidin-5-yl)methanone], the “PDE1b (pIC50)” value is on record as more than 8.
On the same count and under the same terms, the value for `COc1nc(C(C)C)nc2c1CCN(C(=O)c1c(C)oc3ncnc(NC4(C)CC4)c13)C2` [Example 27, 5-[4-Methoxy-2-(propan-2-yl)-5H,6H,7H,8H-pyrido[3,4-d]pyrimidine-7-carbonyl]-6-methyl-N-(1-methylcyclopropyl)furo[2,3-d]pyrimidin-4-amine] was more than 8.
For the compound `Cc1oc2ncnc(NC3(C)CC3)c2c1C(=O)N1CCc2nc(C(C)(C)C)ncc2C1` [Example 41, 5-{2-tert-Butyl-5H,6H,7H,8H-pyrido[4,3-d]pyrimidine-6-carbonyl}-6-methyl-N-(1-methylcyclopropyl)furo[2,3-d]pyrimidin-4-amine], the “PDE1b (pIC50)” value is recorded as more than 8.

The same test, now with this note: negative log of half-maximal molar inhibitory concentration; 200 nM FAM-cAMP; values given as bins; read-out: PDE1b (pIC50) (converted).
For `Cc1oc2ncnc(NC3(C)CC3)c2c1C(=O)N1CCc2c(nc(C(C)C)[nH]c2=O)C1` [Example 22, 2-Isopropyl-7-(6-methyl-4-((1-methylcyclopropyl)amino)furo[2,3-d]pyrimidine-5-carbonyl)-5,6,7,8-tetrahydropyrido[3,4-d]pyrimidin-4(3H)-one], the IC50 is 0.01 to 0.1 µM.
Consider `CCc1ncnc2c1CCN(C(=O)c1c(C)oc3ncnc(NC4(C)CC4)c13)C2` [Example 23, 5-{4-Ethyl-5H,6H,7H,8H-pyrido[3,4-d]pyrimidine-7-carbonyl}-6-methyl-N-(1-methylcyclopropyl)furo[2,3-d]pyrimidin-4-amine], for which the IC50 was 0.01 to 0.1 µM.
On the same count and under the same terms, the value for `Cc1oc2ncnc(NC3(C)CC3)c2c1C(=O)N1CCc2c(C#N)ncnc2C1` [Example 24, 7-(6-Methyl-4-((1-methylcyclopropyl)amino)furo[2,3-d]pyrimidine-5-carbonyl)-5,6,7,8-tetrahydropyrido[3,4-d]pyrimidine-4-carbonitrile] was 0.1 to 1 µM; that for `COc1cc(CN(C(=O)c2c(C)oc3ncnc(NC4(C)CC4)c23)C2CC2)ncn1` [Example 28, N-Cyclopropyl-N-[(6-methoxypyrimidin-4-yl)methyl]-6-methyl-4-[(1-methylcyclopropyl)amino]furo[2,3-d]pyrimidine-5-carboxamide] was 0.01 to 0.1 µM; that for `CCc1nc(C2CC2)n2c1CN(C(=O)c1c(C)oc3ncnc(NC4(C)CC4)c13)CC2` [Example 29, 5-{3-Cyclopropyl-1-ethyl-5H,6H,7H,8H-imidazo[1,5-a]pyrazine-7-carbonyl}-6-methyl-N-(1-methylcyclopropyl)furo[2,3-d]pyrimidin-4-amine] was 0.1 to 1 µM.
On to `Cc1oc2ncnc(NC3(C)CC3)c2c1C(=O)N1C[C@@H]2C(c3ccccn3)[C@@H]2C1` (stereo partly drawn) [Example 30, 6-methyl-N-(1-methylcyclopropyl)-5-[(1R,5S,6S)-6-(pyridin-2-yl)-3-azabicyclo[3.1.0]hexane-3-carbonyl]furo[2,3-d]pyrimidin-4-amine], for which the IC50 is 0.01 to 0.1 µM.
Take `Cc1oc2ncnc(NC3(C)CC3)c2c1C(=O)N1CC(c2ccc(F)cn2)C1` [Example 31, 5-[3-(5-Fluoropyridin-2-yl)azetidine-1-carbonyl]-6-methyl-N-(1-methylcyclopropyl)furo[2,3-d]pyrimidin-4-amine]: the IC50 is 0.01 to 0.1 µM.
`Cc1oc2ncnc(NC3(C)CC3)c2c1C(=O)N1CC(c2ccc(C#N)cc2)C1` [Example 32, 4-(1-{6-Methyl-4-[(1-methylcyclopropyl)amino]furo[2,3-d]pyrimidine-5-carbonyl}azetidin-3-yl)benzonitrile]: the IC50 was 0.01 to 0.1 µM.
`Cc1oc2ncnc(NC3(C)CC3)c2c1C(=O)N1CC(c2nccs2)C1` [Example 33, 6-Methyl-N-(1-methylcyclopropyl)-5-[3-(1,3-thiazol-2-yl)azetidine-1-carbonyl]furo[2,3-d]pyrimidin-4-amine]: the IC50 is 0.01 to 0.1 µM.
Turning to `Cc1oc2ncnc(NC3(C)CC3)c2c1C(=O)Nc1ccc(-c2ccoc2)nc1` [Example 34, N-[6-(Furan-3-yl)pyridin-3-yl]-6-methyl-4-[(1-methylcyclopropyl)amino]furo[2,3-d]pyrimidine-5-carboxamide], the IC50 is 0.01 to 0.1 µM.
With `Cc1oc2ncnc(NC3(C)CC3)c2c1C(=O)N1CCN(c2nccs2)CC1` [Example 35, 6-Methyl-N-(1-methylcyclopropyl)-5-[4-(1,3-thiazol-2-yl)piperazine-1-carbonyl]furo[2,3-d]pyrimidin-4-amine], the IC50 is 0.01 to 0.1 µM.
The same measure, in the same setting: the value for `Cc1oc2ncnc(NC3(C)CC3)c2c1C(=O)N1Cc2cnc(C(F)(F)F)nc2C1` [Example 36, 6-Methyl-N-(1-methylcyclopropyl)-5-[2-(trifluoromethyl)-5H,6H,7H-pyrrolo[3,4-d]pyrimidine-6-carbonyl]furo[2,3-d]pyrimidin-4-amine] was 0.1 to 1 µM.
For the compound `Cc1oc2ncnc(NC3(C)CC3)c2c1C(=O)N1Cc2cnc(-c3ccc(F)cc3)nc2C1` [Example 37, 5-[2-(4-Fluorophenyl)-5H,6H,7H-pyrrolo[3,4-d]pyrimidine-6-carbonyl]-6-methyl-N-(1-methylcyclopropyl)furo[2,3-d]pyrimidin-4-amine], the IC50 was 0.1 to 1 µM.
Still for that read-out and setting: the value for `Cc1oc2ncnc(NC3(C)CC3)c2c1C(=O)N1CC(c2ncc(C(F)(F)F)cc2F)C1` [Example 38, 5-{3-[3-Fluoro-5-(trifluoromethyl)pyridin-2-yl]azetidine-1-carbonyl}-6-methyl-N-(1-methylcyclopropyl)furo[2,3-d]pyrimidin-4-amine] was 0.01 to 0.1 µM; that for `Cc1ncc2c(n1)CCN(C(=O)c1c(C)oc3ncnc(NC4(C)CC4)c13)C2` [Example 39, 6-Methyl-5-f{2-methyl-5H,6H,7H,8H-pyrido[4,3-d]pyrimidine-6-carbonyl}-N-(1-methylcyclopropyl)furo[2,3-d]pyrimidin-4-amine] was 0.01 to 0.1 µM.
As for `COc1nccc2c1CCN(C(=O)c1c(C)oc3ncnc(NC4(C)CC4)c13)C2` [Example 40, 5-(5-Methoxy-1,2,3,4-tetrahydro-2,6-naphthyridine-2-carbonyl)-6-methyl-N-(1-methylcyclopropyl)furo[2,3-d]pyrimidin-4-amine], the IC50 was 0.01 to 0.1 µM.
